In patent US20200323215A1, “PESTICIDE FORMULATIONS DERIVED FROM COMBINATIONS OF CARRAGEENANS, SORBIC ACIDS, AND BICARBONATES” (Circadian Crop Sciences LLC, priority 2019, published 2020):

Assays:
powdery mildew = assay: Sprays against powdery mildew infestations on nursery grown plants; type: in vivo; conditions: for eliminating infestations of powdery mildew: single ingredient sprayed at 1 tablespoon per gallon of water, nursery grown roses, gerbera daisies, ornamental peas, trumpet vines, chrysanthemums, grapevines
Text: One hundred grams of potassium bicarbonate is blended with one hundred grams of carrageenan.

fusarium = conditions: in the literature; cited from earlier work
[1] = tested on: Tomato Russet Mite (Aculops lycopersici); conditions: sprays on young tomato plants naturally infested
Text: Fifty grams of potassium sorbate and fifty grams of sodium bicarbonate are mixed with one hundred grams of carrageenan.

SMILES	effect on powdery mildew that had overwintered on ornamental pea leaves (powdery mildew; overwintered powdery mildew, ornamental pea leaves)	eliminating infestations of powdery mildew (powdery mildew)	efficacy against fusarium, each product separately (fusarium)	effect on Tomato Russet Mites [1]
O=C([O-])O.[Na+] [sodium bicarbonate]	unaffected	ineffective	–	–
O=C([O-])O.[K+] [potassium bicarbonate]	–	–	shown efficacy	–
C/C=C/C=C/C(=O)[O-].[K+] [potassium sorbate]	–	ineffective	–	no effect
